Read-outs that look alike come from different tables or passages of the source.
Key:
[1] = molecular target: T1, LRRK2 (Homo sapiens, UniProt Q5S007); assay: In vitro LRRK2 kinase activity assay (Eurofins); assay type: biochemical; conditions: for activity at 1 µM / LRRK2 activity (%): remaining kinase activity at 1 uM compound, 100% = no inhibition, 0% = complete inhibition
T1 construct: purchased Eurofins (Belgium), contract assay service
Procedure: All compounds were tested for their kinase inhibitory activity at the concentration of 1 μM. […] Compounds with high activity or good selectivity were selected for further IC50 determination (Table 2).
(§1) Eurofins (Belgium) conducted in vitro DCLK1 and LRRK2 kinase activity assays. Compounds were sent as dry powders to Eurofins.

[2] = molecular target: T2, DCLK1 (Homo sapiens, UniProt O15075); assay: In vitro DCLK1 kinase activity assay (Eurofins); assay type: biochemical; conditions: for Selectivity (DCLK1 activity/LRRK2 activity): ratio of remaining activities at 1 uM; for activity at 1 µM: read-out: DCLK1 activity (%)
T2 construct: purchased Eurofins (Belgium), contract assay service
T2 sequence (O15075 1-740): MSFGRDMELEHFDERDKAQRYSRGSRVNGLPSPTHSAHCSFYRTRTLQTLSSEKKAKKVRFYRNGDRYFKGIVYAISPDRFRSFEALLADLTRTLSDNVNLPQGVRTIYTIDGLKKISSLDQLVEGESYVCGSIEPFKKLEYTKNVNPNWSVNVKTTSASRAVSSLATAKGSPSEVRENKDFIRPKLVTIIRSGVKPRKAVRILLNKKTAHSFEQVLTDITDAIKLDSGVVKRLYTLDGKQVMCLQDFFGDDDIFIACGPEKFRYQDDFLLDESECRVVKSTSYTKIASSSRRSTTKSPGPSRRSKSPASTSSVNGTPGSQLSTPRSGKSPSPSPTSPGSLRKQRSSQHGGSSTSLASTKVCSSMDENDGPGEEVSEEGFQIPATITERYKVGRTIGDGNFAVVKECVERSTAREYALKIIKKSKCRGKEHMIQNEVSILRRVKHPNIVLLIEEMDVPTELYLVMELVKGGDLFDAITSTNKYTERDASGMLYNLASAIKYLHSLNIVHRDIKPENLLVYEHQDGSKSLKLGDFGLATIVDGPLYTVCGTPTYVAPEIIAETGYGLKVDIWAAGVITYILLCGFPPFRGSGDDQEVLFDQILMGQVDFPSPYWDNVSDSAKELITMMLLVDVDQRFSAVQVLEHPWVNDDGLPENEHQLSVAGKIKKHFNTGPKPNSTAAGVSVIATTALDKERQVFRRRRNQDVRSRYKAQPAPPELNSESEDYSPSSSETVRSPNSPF
Description: as §1

[3] = system: HCT116; assay: In vitro cytotoxicity / anti-proliferation assay (CCK8); assay type: cell-based; conditions: Homo sapiens, HCT-116, colorectal cancer cell line HCT116, 72 h
Procedure: To determine whether DCLK1 was required for tumour cell proliferation, the cytotoxicity of compounds was evaluated in colorectal cancer cell line HCT116. HCT116 was treated with compounds for 72 h, and the cell viability was determined using CCK8 assay (Figure 4). The antiproliferative effects of most compounds on HCT116 were correlated with their DCLK1 inhibitory activities, except for compounds D1 and D2. The poor cytotoxicity of compounds D1 and D2 may be attributed to their poor cell membrane permeability due to the negatively charged carboxylates. […] Overall, targeting DCLK1 inhibited the proliferation of HCT116, indicating the importance of DCLK1 in tumour growth.
A 96-well plate (3599, Corning, USA) was inoculated with 100 μL of complete medium containing 10 000 cells, and the experimental, control, and blank groups were established. Three parallel wells were used per concentration. After 10 h, media from the experimental and control groups were replaced with a complete medium containing the indicated concentration of the compound. Cells were incubated for 72 h before 10 μL of CCK8 reagent (CA1210, Solarbio, China) was added to each well and incubated for 1 h. The absorbance at 450 nm was measured with a microplate reader (Tecan, Switzerland). The IC50 was determined using GraphPad Prism 8 and nonlinear regression curve fitting.

[4] = remaining kinase activity at 1 uM compound, 100% = no inhibition, 0% = complete inhibition

T1 sequence (Q5S007 whole entry): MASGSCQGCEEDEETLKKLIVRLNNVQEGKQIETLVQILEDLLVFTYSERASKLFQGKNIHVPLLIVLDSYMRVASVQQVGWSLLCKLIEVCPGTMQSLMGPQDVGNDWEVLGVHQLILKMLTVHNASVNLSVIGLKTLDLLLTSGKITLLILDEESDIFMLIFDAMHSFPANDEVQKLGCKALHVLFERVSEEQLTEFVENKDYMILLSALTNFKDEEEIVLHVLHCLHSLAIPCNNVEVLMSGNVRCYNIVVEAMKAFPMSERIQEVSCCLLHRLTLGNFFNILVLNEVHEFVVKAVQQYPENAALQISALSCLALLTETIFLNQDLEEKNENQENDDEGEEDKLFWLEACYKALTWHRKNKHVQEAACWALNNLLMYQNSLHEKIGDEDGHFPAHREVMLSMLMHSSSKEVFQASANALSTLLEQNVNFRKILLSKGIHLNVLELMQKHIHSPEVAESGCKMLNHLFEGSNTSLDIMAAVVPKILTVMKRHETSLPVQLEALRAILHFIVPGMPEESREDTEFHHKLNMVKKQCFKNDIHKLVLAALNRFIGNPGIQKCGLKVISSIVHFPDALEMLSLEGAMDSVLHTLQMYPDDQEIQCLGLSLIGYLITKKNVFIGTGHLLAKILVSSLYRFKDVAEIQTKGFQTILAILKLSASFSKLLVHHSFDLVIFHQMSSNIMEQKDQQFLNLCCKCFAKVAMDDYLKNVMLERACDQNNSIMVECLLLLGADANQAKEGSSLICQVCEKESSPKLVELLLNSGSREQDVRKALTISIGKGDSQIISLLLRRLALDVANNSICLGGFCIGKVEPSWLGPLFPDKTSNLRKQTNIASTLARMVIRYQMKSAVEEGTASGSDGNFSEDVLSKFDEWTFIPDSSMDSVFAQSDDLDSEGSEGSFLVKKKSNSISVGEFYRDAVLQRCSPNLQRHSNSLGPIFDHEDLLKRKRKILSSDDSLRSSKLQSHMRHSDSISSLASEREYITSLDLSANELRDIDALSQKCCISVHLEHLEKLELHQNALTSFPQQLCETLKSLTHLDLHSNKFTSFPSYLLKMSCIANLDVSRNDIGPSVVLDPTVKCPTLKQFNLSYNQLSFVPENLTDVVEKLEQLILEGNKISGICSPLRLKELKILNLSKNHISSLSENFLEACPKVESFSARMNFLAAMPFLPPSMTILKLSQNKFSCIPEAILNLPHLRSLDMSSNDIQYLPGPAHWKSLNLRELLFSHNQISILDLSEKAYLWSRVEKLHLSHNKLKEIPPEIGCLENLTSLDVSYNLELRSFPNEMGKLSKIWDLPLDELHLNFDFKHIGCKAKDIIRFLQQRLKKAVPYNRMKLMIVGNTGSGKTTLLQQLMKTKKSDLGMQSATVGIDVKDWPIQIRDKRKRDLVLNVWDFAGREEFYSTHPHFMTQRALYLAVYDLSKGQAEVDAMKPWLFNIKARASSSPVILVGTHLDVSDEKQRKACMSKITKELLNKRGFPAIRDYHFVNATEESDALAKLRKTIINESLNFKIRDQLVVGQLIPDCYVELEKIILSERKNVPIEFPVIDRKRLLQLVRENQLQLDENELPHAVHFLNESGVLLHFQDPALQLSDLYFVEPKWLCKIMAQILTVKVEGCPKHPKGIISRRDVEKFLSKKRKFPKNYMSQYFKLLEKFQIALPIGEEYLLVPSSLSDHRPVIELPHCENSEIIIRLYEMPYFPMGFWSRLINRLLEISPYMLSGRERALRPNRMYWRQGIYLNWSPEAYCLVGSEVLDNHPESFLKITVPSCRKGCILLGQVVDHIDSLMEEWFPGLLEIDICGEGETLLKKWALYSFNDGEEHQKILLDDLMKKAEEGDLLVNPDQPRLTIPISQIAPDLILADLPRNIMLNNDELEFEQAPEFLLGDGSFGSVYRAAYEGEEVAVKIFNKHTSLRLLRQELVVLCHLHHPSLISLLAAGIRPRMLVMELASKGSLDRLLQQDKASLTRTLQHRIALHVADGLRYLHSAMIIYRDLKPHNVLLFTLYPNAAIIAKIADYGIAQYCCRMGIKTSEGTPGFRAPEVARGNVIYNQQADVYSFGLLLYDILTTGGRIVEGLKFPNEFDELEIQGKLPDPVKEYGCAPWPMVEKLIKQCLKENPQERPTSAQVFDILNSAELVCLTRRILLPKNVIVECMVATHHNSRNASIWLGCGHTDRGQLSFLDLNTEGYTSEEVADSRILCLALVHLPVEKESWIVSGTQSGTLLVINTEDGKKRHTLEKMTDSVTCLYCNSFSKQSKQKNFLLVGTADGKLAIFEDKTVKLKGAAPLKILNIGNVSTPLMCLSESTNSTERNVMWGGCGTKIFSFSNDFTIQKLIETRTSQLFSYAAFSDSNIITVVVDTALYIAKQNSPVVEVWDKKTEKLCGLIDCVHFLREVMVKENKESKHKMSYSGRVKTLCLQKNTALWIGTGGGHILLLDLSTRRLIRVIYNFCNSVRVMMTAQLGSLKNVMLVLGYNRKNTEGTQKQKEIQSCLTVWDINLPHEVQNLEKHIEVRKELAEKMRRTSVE

| Compound | activity at 1 µM [1] [%] | Selectivity (DCLK1 activity/LRRK2 activity) [2] | activity at 1 µM [2, 4] [%] | melting point [°C] | LRRK2 activity (%) [1] [%] | DCLK1 activity (%) [2, 4] [%] | IC50 [1] [nM] | IC50 [2] [nM] | activity at 1 µM [2] [%] | IC50 [3] [µM] |
| --- | --- | --- | --- | --- | --- | --- | --- | --- | --- | --- |
| COc1cc(N2CCC(C)(C)CC2)ccc1Nc1ncc2c(n1)N(C)c1ccccc1C(=O)N2C [Compound D16, 2-((4-(4,4-Dimethylpiperidin-1-yl)-2-methoxyphenyl)amino)-5,11-dimethyl-5,11-dihydro-6H-benzo[e]pyrimido[5,4-b][1,4]diazepin-6-one] | 33 | 0.45 | 15 | 181 to 182 |  |  |  |  |  |  |
| CCOc1cc(N2CCC(O)CC2)ccc1Nc1ncc2c(n1)N(C)c1ccc(C(F)(F)F)cc1C(=O)N2C [Compound A7, 2-((2-Ethoxy-4-(4-hydroxypiperidin-1-yl)phenyl)amino)-5,11-dimethyl-8-(trifluoromethyl)-5,11-dihydro-6H-benzo[e]pyrimido[5,4-b][1,4]diazepin-6-one] | 109 | 1.00 | 109 | 119 to 120 |  |  |  |  |  |  |
| 2-((2-Ethoxy-4-(4-hydroxypiperidin-1-yl)phenyl)amino)-5-methyl-5,11-dihydro-6H-benzo[e]pyrimido[5,4-b][1,4]diazepin-6-one [Compound B2] |  | 0.82 |  |  | 72 | 59 |  |  |  |  |
| CN1C(=O)c2ccccc2N(C)c2nc(NC3CCC(N4CCC(O)CC4)CC3)ncc21 (stereo not shown) [Compound C1, 2-((4-(4-Hydroxypiperidin-1-yl)cyclohexyl)amino)-5,11-dimethyl-5,11-dihydro-6H-benzo[e]pyrimido[5,4-b][1,4]diazepin-6-one] | 99 | 0.57 | 56 | 203 to 204 |  |  |  |  |  |  |
| CCOc1cc(N2CCC(O)CC2)ccc1Nc1ncc2c(n1)N(C)c1ccc(Cl)cc1C(=O)N2C [Compound A5, 8-Chloro-2-((2-ethoxy-4-(4-hydroxypiperidin-1-yl)phenyl)amino)-5,11-dimethyl-5,11-dihydro-6H-benzo[e]pyrimido[5,4-b][1,4]diazepin-6-one] | 89 | 0.98 | 87 | 173 to 174 |  |  |  |  |  |  |
| CCOc1cc(N2CCC(O)CC2)ccc1Nc1ncc2c(n1)N(C)c1ccccc1C(=O)N2C [XMD8-92, reference compound] | 18 |  |  |  |  |  | 219 | 161 | 14 | 16.2 |
| CCOc1cc(N2CCC(O)CC2)ccc1Nc1ncc2c(n1)N(C)c1cc(C)ccc1C(=O)N2C [Compound A4, 2-((2-Ethoxy-4-(4-hydroxypiperidin-1-yl)phenyl)amino)-5,9,11-trimethyl-5,11-dihydro-6H-benzo[e]pyrimido[5,4-b][1,4]diazepin-6-one] | 83 | 1.07 | 89 | 171 to 172 |  |  |  |  |  |  |
| CCOc1cc(N2CCC(C)(O)CC2)ccc1Nc1ncc2c(n1)N(C)c1ccccc1C(=O)N2CC [Compound D9, 2-((2-Ethoxy-4-(4-hydroxy-4-methylpiperidin-1-yl)phenyl)amino)-5-ethyl-11-methyl-5,11-dihydro-6H-benzo[e]pyrimido[5,4-b][1,4]diazepin-6-one] | 51 | 0.51 | 26 | 178 to 179 |  |  |  |  |  |  |
| CCOc1cc(N2CCC(O)CC2)ccc1Nc1ncc2c(n1)N(C)c1c(C)cccc1C(=O)N2C [Compound A2, 2-((2-Ethoxy-4-(4-hydroxypiperidin-1-yl)phenyl)amino)-5,10,11-trimethyl-5,11-dihydro-6H-benzo[e]pyrimido[5,4-b][1,4]diazepin-6-one] | 100 | 1.03 | 103 | 177 to 178 |  |  |  |  |  |  |
| CCOc1cc(N2CCC(O)CC2)ccc1Nc1ncc2c(n1)N(C)c1cccc(C)c1C(=O)N2C [Compound A10, 2-((2-Ethoxy-4-(4-hydroxypiperidin-1-yl)phenyl)amino)-5,7,11-trimethyl-5,11-dihydro-6H-benzo[e]pyrimido[5,4-b][1,4]diazepin-6-one] | 98 | 0.98 | 96 | 184 to 185 |  |  |  |  |  |  |
| CN1C(=O)c2ccccc2N(C)c2nc(Nc3ccc(N4CCC(O)CC4)nc3)ncc21 [Compound C2, 2-((6-(4-Hydroxypiperidin-1-yl)pyridin-3-yl)amino)-5,11-dimethyl-5,11-dihydro-6H-benzo[e]pyrimido[5,4-b][1,4]diazepin-6-one] | 7 | 2.14 | 15 | 189 to 190 |  |  |  |  |  |  |
| CCOc1cc(N2CCC(O)CC2)ccc1Nc1ncc2c(n1)N(C)c1c(Cl)cccc1C(=O)N2C [Compound A1, 10-Chloro-2-((2-ethoxy-4-(4-hydroxypiperidin-1-yl)phenyl)amino)-5,11-dimethyl-5,11-dihydro-6H-benzo[e]pyrimido[5,4-b][1,4]diazepin-6-one] | 8 | 3.13 | 25 | 130 to 131 |  |  |  |  |  |  |
| 2-((2-Ethoxy-4-(4-hydroxypiperidin-1-yl)phenyl)amino)-11-methyl-5,11-dihydro-6H-benzo[e]pyrimido[5,4-b][1,4]diazepin-6-one [Compound B1] |  | 1.34 |  |  | 76 | 102 |  |  |  |  |
| COc1cc(N2CCC(F)CC2)ccc1Nc1ncc2c(n1)N(C)c1ccccc1C(=O)N2C [Compound D13, 2-((4-(4-Fluoropiperidin-1-yl)-2-methoxyphenyl)amino)-5,11-dimethyl-5,11-dihydro-6H-benzo[e]pyrimido[5,4-b][1,4]diazepin-6-one] | 72 | 0.82 | 59 | 160 to 161 |  |  |  |  |  |  |
| CCOc1cc(N2CCC(O)CC2)ccc1Nc1ncc2c(n1)N(C)c1ccc(C)cc1C(=O)N2C [Compound A8, 2-((2-Ethoxy-4-(4-hydroxypiperidin-1-yl)phenyl)amino)-5,8,11-trimethyl-5,11-dihydro-6H-benzo[e]pyrimido[5,4-b][1,4]diazepin-6-one] | 93 | 1.10 | 102 | 170 to 171 |  |  |  |  |  |  |
| CCOc1cc(N2CCC(C)(F)CC2)ccc1Nc1ncc2c(n1)N(C)c1ccccc1C(=O)N2CC [Compound D10, 2-((2-Ethoxy-4-(4-fluoro-4-methylpiperidin-1-yl)phenyl)amino)-5-ethyl-11-methyl-5,11-dihydro-6H-benzo[e]pyrimido[5,4-b][1,4]diazepin-6-one] | 81 | 0.63 | 51 | 189 to 190 |  |  |  |  |  |  |
| CCOc1cc(N2CCC(O)CC2)ccc1Nc1ncc2c(n1)N(C)c1cc(Cl)ccc1C(=O)N2C [Compound A3, 9-Chloro-2-((2-ethoxy-4-(4-hydroxypiperidin-1-yl)phenyl)amino)-5,11-dimethyl-5,11-dihydro-6H-benzo[e]pyrimido[5,4-b][1,4]diazepin-6-one] | 88 | 0.97 | 85 | 162 to 163 |  |  |  |  |  |  |
